According to patent US9408848B2, “Fluorescent CDK inhibitors for treatment of cancer” (Georgetown University, priority 2008, dated 2016):

Key:
[1] = test system: T1, CDK1/cyclinA (Homo sapiens); assay: Kinase assay ([γ-33P]-ATP, histone H1); assay type: biochemical; conditions: read-out: % inhibition of kinase activity, CDK1/cyclinA
T1 construct: purchased Millipore, Dundee, UK (screening service)
Experimental: (§1) The final reaction was carried out in a 25 μL solution.
(§2) Briefly assays were performed with a Biomek 2000 Laboratory Automation Workstation in a 96-well format (Beckman instruments, Palo Alto, Calif., U.S.A) for 40 min at ambient temperature in 25 μL incubations using [γ-^33P]-ATP. In a final reaction volume of 25 μL corresponding CDK/cyclin (h) (5-10 mU) was incubated with 8 mM MOPS pH 7.0, 0.2 mM EDTA, 0.1 mg/mL histone H1, 10 mM MgAcetate and [γ-^33P-ATP](specific activity approx. 500 cpm/pmol, concentration as required). The reaction was initiated by the addition of the MgATP mix. After incubation for 40 min at room temperature, the reaction was stopped by the addition of 5 μL of a 3% phosphoric acid solution.

CDK1/cyclinB = molecular target: T2, CDK1/cyclinB (Homo sapiens, UniProt P06493); assay: Kinase assay ([γ-33P]-ATP, histone H1); assay type: biochemical; conditions: compound 0.1 μM
T2 construct: purchased Millipore, Dundee, UK (screening service)
T2 sequence (P06493 whole entry): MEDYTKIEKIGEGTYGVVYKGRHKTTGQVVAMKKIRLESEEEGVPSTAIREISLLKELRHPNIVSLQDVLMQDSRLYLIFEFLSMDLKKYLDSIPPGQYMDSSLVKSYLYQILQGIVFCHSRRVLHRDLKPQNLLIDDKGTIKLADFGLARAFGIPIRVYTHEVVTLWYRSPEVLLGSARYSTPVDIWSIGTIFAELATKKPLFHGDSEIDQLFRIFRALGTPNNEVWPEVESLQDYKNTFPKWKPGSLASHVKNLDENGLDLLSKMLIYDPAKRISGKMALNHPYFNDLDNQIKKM
T2 sequence (P14635 whole entry partner): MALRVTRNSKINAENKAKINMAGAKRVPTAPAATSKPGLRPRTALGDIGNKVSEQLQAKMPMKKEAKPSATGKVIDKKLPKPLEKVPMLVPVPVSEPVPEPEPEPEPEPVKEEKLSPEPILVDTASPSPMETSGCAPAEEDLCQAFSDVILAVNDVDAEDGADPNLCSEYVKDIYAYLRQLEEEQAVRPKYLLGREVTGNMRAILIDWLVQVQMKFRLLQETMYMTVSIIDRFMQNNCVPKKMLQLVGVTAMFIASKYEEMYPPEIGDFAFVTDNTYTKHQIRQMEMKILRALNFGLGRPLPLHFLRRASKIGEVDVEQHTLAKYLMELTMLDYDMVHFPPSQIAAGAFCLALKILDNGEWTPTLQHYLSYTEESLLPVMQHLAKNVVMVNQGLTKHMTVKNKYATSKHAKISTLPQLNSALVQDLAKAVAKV
Experimental: as §1, §2

CDK2/cyclinE = molecular target: T3, CDK2/cyclinE (Homo sapiens, UniProt P24941); assay: Kinase assay ([γ-33P]-ATP, histone H1); assay type: biochemical; conditions: read-out: % inhibition of kinase activity, CDK2/cyclinE
T3 construct: purchased Millipore, Dundee, UK (screening service)
Experimental: as §1, §2

CDK3/cyclinE = molecular target: T4, CDK3/cyclinE (Homo sapiens, UniProt Q00526); assay: Kinase assay ([γ-33P]-ATP, histone H1); assay type: biochemical; conditions: read-out: % inhibition of kinase activity, CDK3/cyclinE
T4 construct: purchased Millipore, Dundee, UK (screening service)
Experimental: as §1, §2

CDK7/cyclinH/MATI = molecular target: T5, CDK7/cyclinH/MATI (Homo sapiens, UniProt P50613); assay: Kinase assay ([γ-33P]-ATP, histone H1); assay type: biochemical; conditions: read-out: % inhibition of kinase activity, CDK7/cyclinH/MATI
T5 construct: purchased Millipore, Dundee, UK (screening service)
T5 sequence (P50613 whole entry): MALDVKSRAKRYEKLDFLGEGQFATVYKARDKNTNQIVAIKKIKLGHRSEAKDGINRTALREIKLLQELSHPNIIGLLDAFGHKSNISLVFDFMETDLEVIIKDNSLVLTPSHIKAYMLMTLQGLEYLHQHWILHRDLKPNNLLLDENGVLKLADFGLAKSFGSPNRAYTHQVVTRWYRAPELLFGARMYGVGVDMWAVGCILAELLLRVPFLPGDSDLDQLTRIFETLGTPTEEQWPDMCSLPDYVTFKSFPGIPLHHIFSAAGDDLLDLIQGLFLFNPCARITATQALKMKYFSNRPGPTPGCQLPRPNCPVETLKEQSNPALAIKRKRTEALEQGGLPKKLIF
T5 sequence (P51946 whole entry partner): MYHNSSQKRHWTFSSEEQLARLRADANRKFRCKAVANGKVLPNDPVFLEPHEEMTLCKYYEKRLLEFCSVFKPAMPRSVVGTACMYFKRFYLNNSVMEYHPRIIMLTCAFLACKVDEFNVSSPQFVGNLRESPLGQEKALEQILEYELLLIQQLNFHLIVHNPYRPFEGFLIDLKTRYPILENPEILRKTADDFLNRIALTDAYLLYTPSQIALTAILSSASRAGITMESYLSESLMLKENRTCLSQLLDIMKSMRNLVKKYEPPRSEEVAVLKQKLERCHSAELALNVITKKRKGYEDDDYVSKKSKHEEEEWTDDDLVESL
T5 sequence (P51948 whole entry partner): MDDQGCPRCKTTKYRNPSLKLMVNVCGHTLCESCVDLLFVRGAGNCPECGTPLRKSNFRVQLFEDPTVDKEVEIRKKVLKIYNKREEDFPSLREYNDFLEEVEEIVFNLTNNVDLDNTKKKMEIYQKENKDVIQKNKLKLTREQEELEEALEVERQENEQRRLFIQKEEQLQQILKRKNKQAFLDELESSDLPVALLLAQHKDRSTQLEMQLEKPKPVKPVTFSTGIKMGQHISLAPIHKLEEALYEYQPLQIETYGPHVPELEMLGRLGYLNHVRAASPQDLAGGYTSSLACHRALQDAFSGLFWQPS
Experimental: . The final reaction was carried out in a 25 μL solution. The respective kinases (at […] were incubated with 8 mM MOPS (pH 7.0), 0.2 mM EDTA, 0.1 mg/ml histone H1, 10 mM MgAcetate and [γ-33P-ATP] (specific activity approximately 500 cpm/pmol, concentration as required). The reaction was then initiated by the addition of the MgATP mix. The reaction was stopped after 40 min of incubation by adding 5 μL of a 3% phosphoric acid solution. 10 μL of the reaction was spotted onto a P30 filter mat and washed 3 times for 5 min in 75 mM phosphoric acid and one in methanol prior to drying and counted radioactivity by scintillation counting. […]. Table 1 summarizes the cytotoxic effects of VMY compounds and its controls on breast cancer cell line.
as §2, with “Kinase selectivity of compounds VMY-1-101 and VMY-1-103 were screened at Millipore, Dundee, UK. Briefly” for “Briefly”, “solution. From the reaction, 10 μL was spotted onto a P30 filtermat and washed three times for 5 minutes in 75 mM phosphoric acid and once in methanol prior to dying and scintillation counting.” for “solution.”

MCF-7 [2] = assay: Cell viability assay (WST-1); assay type: cell-based, human; conditions: Homo sapiens, MCF7, 48 h, read-out: IC50 (concentration yielding 50% growth inhibition)
Experimental: (§3) (10%), 2 mM L-glutamine, and 50 μg/mL each of antibiotics, namely penicillin, streptomycin, and neomycin at 37° C. in a humidified incubator containing 5% CO2
(§4) Briefly human breast cancer cells were seeded into a 96-well plate at 3000 cells per well in DMEM containing 10% FBS. Following 24 hours attachment period, compounds were dissolved in DMSO and serially diluted in tissue culture media and added to the cells in triplicate, and incubated for 48 h at 37° C. Control cells were treated with equal amount of DMSO. After 48 h incubation, cell viability was measured by WST-1 assay according to the manufacturer's instructions (Roche). […] The formazan absorbance, which correlates to the number of living cells, was measured at 450 nm and 630 nm as reference filter using a microplate reader. (Ultramark, Microplate Imaging System, Bio-Rad). The IC50 was calculated from the graph of the log of the compound concentration versus the fraction of the surviving cells.

MDA-MB-231 [3] = assay: Cell viability assay (WST-1); assay type: cell-based, human; conditions: Homo sapiens, MDA-MB-231, 48 h, read-out: IC50 (concentration yielding 50% growth inhibition)
Experimental: as §3, §4

MCF-7 [4] = assay: Cell cycle analysis by flow cytometry (propidium iodide); assay type: cell-based, human
Experimental: (§5) 5 μM concentrations were used for all drugs tested. The cells were exposed to the vehicle (DMSO) or […] of the CDK inhibitors for 24 hrs. The cell cycle distribution was then assessed using standard procedures.

MDA-MB-231 [5] = assay: as above; assay type: cell-based, human
Experimental: as §5

MDA-MB-231 cells = assay: Apoptotic signaling, Western blot of apoptosis related proteins; assay type: cell-based, human; conditions: MDA-MB-231, 10 μM, 48 hours
Experimental: In order to understand whether VMY-1-101 and VMY-1-103 compounds were able to induce apoptotic cell death, the expression of anti- and pro-apoptotic proteins in MDA-MB-231 cells following treatment with 10 μM drugs for 48 hours was evaluated first. […] This is further confirmed with proapoptotic 116 kDa poly (ADP-ribose) polymerase protein (PARP) into its 89-kDa fragments. […].
Western blotting was performed according to literature procedure. In brief, cell pellets were collected at the indicated times after treatment with compounds, suspended in 100 μL of lysis buffer (50 mM Tris-HCl, 150 mM NaCl, 1 mM EGTA, 1 mM EDTA, 20 mM NaF, 100 mM Na3VO4, 0.5% NP-40, 1% Triton X-100, 1 mM PMSF, 5 μg/ml aprotinin, 5 μg/ml leupeptin), vortexed twice and incubated in an ice bath for 30 min. Lysates were cleared by centrifugation at 12000 rpm for 15 min at 4° C. and protein was estimated by detergent compatible BCA protein assay kit (Pierce). Equivalent amounts of total proteins were resolved by SDS-PAGE (10%) and transferred to PVDF membrane. Membranes were blocked by 5% non-fat powdered milk in TBST overnight. Membranes were incubated with indicated primary antibodies for 2 hours followed by HRP-conjugated secondary antibodies for 1 hr and developed using enhanced chemiluminescence kit (Perkin Elmer).

CC[C@H](CO)Nc1nc(Nc2ccc(C(=O)NCCNS(=O)(=O)c3cccc4c(N(C)C)cccc34)c(Cl)c2)c2ncn(C(C)C)c2n1 [VMY-1-101, 2-Chloro-N-[2-(5-dimethylamino-naphthalene-1-sulfonylamino)-ethyl]-4-[2-(1-hydroxymethyl-propylamino)-9-isopropyl-9H-purin-6-ylamino]-benzamide]
inhibition at 0.1 µM [1]: 62%
inhibition at 0.1 µM (CDK1/cyclinB): 16 ± 3%
inhibition at 0.1 µM (CDK2/cyclinE): 87%
inhibition at 0.1 µM (CDK3/cyclinE): 40 ± 3%
inhibition at 0.1 µM (CDK7/cyclinH/MATI): 57%
IC50 (MCF-7 [2]): 19.1 ± 1.14 µM
IC50 (MDA-MB-231 [3]): 4.86 ± 1.24 µM
effect on cell cycle progression (G2/M phase) (MCF-7 [4]; MCF-7, 5, 10 μM, 24 hrs): induced the cell cycle progression in G2/M phase
% G1 (MCF-7 [4]; MCF-7, 24 hrs, 5 μM): 63.56 ± 1.20%
% S (MCF-7 [4]; MCF-7, 24 hrs, 5 μM): 10.75 ± 0.88%
% Sub-G1 (MCF-7 [4]; MCF-7, 24 hrs, 5 μM): 2.08 ± 0.19%
effect on cell cycle progression (G2/M phase) (MDA-MB-231 [5]; MDA-MB-231, 5, 10 μM, 24 hrs): induced the cell cycle progression in G2/M phase
% G1 (MDA-MB-231 [5]; MDA-MB-231, 24 hrs, 5 μM): 51.5 ± 0.50%
% S (MDA-MB-231 [5]; MDA-MB-231, 24 hrs, 5 μM): 25.05 ± 0.45%
% Sub-G1 (MDA-MB-231 [5]; MDA-MB-231, 24 hrs, 5 μM): 2.01 ± 0.19%
PARP cleavage (MDA-MB-231 cells): moderate cleavage of the 116-kDa full length PARP into an 89-kDa fragment
protein level of full length caspase 3 and 7 (MDA-MB-231 cells): decrease in protein level of full length caspase 3 and 7
